Source: ChEMBL document CHEMBL3272053, “(exo, exo)-2-Aryltropane-3-carboxylic esters, hypoglycemic agents with accompanying analgesic activity” (J Med Chem, 1978)
Activity calls are given as the source filed them. No cut-off for these calls is given here.

Legend:
[1] = tested on: Mus musculus; test: Analgesic activity in Swiss-Webster mouse assessed as reduction of acetylcholine-induced writhing at 50 mg/kg, po relative to control; type: functional; parameters: scale not given: the % may be the effect or the level left
[2] = tested on: Rattus norvegicus; test: Hypoglycemic activity in glucose loaded Sprague-Dawley rat assessed as reduction of blood glucose level at 264 mg/kg, po relative to control; type: functional; parameters: scale not given: the % may be the effect or the level left
[3] = tested on: Rattus norvegicus; test: Hypoglycemic activity in Sprague-Dawley rat assessed as reduction of blood glucose level at 88 mg/kg, po by glucagon-impaired glucose disposal test relative to control; type: functional
[4] = tested on: Rattus norvegicus; test: Narcotic analgesic activity in fasted Sprague-Dawley rat at 240 mg/kg, po measured at 15 mins by D'Amour-Smith tail-flick test relative to control; type: functional
[5] = tested on: Rattus norvegicus; test: Hypoglycemic activity in glucose loaded Sprague-Dawley rat assessed as reduction of blood glucose level at 64 mg/kg, po relative to control; type: functional; parameters: scale not given: the % may be the effect or the level left
[6] = tested on: Rattus norvegicus; test: Hypoglycemic activity in glucose loaded Sprague-Dawley rat assessed as reduction of blood glucose level at 64 mg/kg, po in presence of microsomal enzyme inhibitor SKF 525-A; type: functional, organism-based; parameters: dose 64 mg/kg
[7] = tested on: Mus musculus; test: Analgesic activity in po dosed Swiss-Webster mouse assessed as reduction of acetylcholine-induced writhing; type: functional
[8] = tested on: Rattus norvegicus; test: Toxicity in Sprague-Dawley rat assessed as very rigid structure at 240 mg/kg, po; type: organism-based; parameters: dose 240 mg/kg, route oral; settings: in vivo
[9] = tested on: Rattus norvegicus; test: Toxicity in Sprague-Dawley rat assessed as convulsion at 240 mg/kg, po; type: organism-based; parameters: dose 240 mg/kg, route oral; settings: in vivo
[10] = tested on: Rattus norvegicus; test: Hypoglycemic activity in fasted Sprague-Dawley rat assessed as reduction of blood glucose level at 89 mg/kg, po relative to control; type: functional; parameters: scale not given: the % may be the effect or the level left
[11] = tested on: Mus musculus; test: Analgesic activity in Swiss-Webster mouse assessed as reduction of acetylcholine-induced writhing at 25 mg/kg, sc relative to control; type: functional; parameters: scale not given: the % may be the effect or the level left; settings: route subcutaneous
[12] = tested on: Rattus norvegicus; test: Toxicity in Sprague-Dawley rat assessed as tremor at 240 mg/kg, sc; type: organism-based; parameters: dose 240 mg/kg, route subcutaneous; settings: in vivo
[13] = tested on: Rattus norvegicus; test: Toxicity in Sprague-Dawley rat assessed as rigidity at 240 mg/kg, sc; type: organism-based; parameters: dose 240 mg/kg, route subcutaneous; settings: in vivo
[14] = species: Rattus norvegicus; test: Narcotic analgesic activity in Sprague-Dawley rat at 15 mins by D'Amour-Smith tail-flick test in presence of microsomal enzyme inhibitor SKF 525-A; type: functional, organism-based
[15] = tested on: Rattus norvegicus; test: Narcotic analgesic activity in fed Sprague-Dawley rat at 240 mg/kg, sc measured at 30 mins by D'Amour-Smith tail-flick test; type: functional; settings: route subcutaneous
[16] = tested on: Rattus norvegicus; test: Hypoglycemic activity in Sprague-Dawley rat assessed as reduction of blood glucose level at 88 mg/kg, po by glucagon-impaired glucose disposal test in presence of microsomal enzyme inhibitor SKF 525-A; type: functional, organism-based; parameters: dose 88 mg/kg
[17] = tested on: Rattus norvegicus; test: Narcotic analgesic activity in fasted Sprague-Dawley rat at 120 mg/kg, po measured at 60 mins by D'Amour-Smith tail-flick test relative to control; type: functional
[18] = tested on: Rattus norvegicus; test: Hypoglycemic activity in Sprague-Dawley rat assessed as reduction of blood glucose level at 88 mg/kg, po by glucagon-impaired glucose disposal test in presence of opioid antagonist nalorphine; type: functional, organism-based; parameters: dose 88 mg/kg
[19] = tested on: Rattus norvegicus; test: Narcotic analgesic activity in fasted Sprague-Dawley rat at 120 mg/kg,sc measured at 30 mins by D'Amour-Smith tail-flick test in presence of opioid antagonist nalorphine; type: functional, organism-based; parameters: dose 120 mg/kg
[20] = tested on: Rattus norvegicus; test: Hypoglycemic activity in Sprague-Dawley rat assessed as reduction of blood glucose level at 100 mg/kg, po; type: functional, organism-based; parameters: dose 100 mg/kg
[21] = tested on: Rattus norvegicus; test: Hypoglycemic activity in fasted Sprague-Dawley rat assessed as reduction of blood glucose level at 78 mg/kg, iv relative to control; type: functional, organism-based; parameters: dose 78 mg/kg
[22] = tested on: Rattus norvegicus; test: Hypoglycemic activity in fasted Sprague-Dawley rat assessed as reduction of blood glucose level at 78 mg/kg, po relative to control; type: functional; parameters: scale not given: the % may be the effect or the level left
[23] = tested on: Rattus norvegicus; test: Hypoglycemic activity in glucose loaded Sprague-Dawley rat assessed as reduction of blood glucose level at 84 mg/kg, po relative to control; type: functional; parameters: scale not given: the % may be the effect or the level left
[24] = tested on: Rattus norvegicus; test: Narcotic analgesic activity in fasted Sprague-Dawley rat at 480 mg/kg, po measured at 60 mins by D'Amour-Smith tail-flick test relative to control; type: functional
[25] = tested on: Rattus norvegicus; test: Toxicity in Sprague-Dawley rat assessed as tremor at 480 mg/kg, po; type: organism-based; parameters: dose 480 mg/kg, route oral; settings: in vivo
[26] = tested on: Rattus norvegicus; test: Toxicity in Sprague-Dawley rat assessed as hyperexcitability at 480 mg/kg, po; type: organism-based; parameters: dose 480 mg/kg, route oral; settings: in vivo
[27] = tested on: Rattus norvegicus; test: Hypoglycemic activity in Sprague-Dawley rat assessed as reduction of blood glucose level at 100 mg/kg, po by glucagon-impaired glucose disposal test relative to control; type: functional; parameters: scale not given: the % may be the effect or the level left

`COC(=O)CN1[C@@H]2CC[C@@H]1[C@@H](c1cccs1)[C@@H](C(=O)OC)C2.Cl` was tested, and the Activity [1] was 33%, the Activity [2] was 70% and the Activity [3] was “inactive”. It also gave an Activity [4] of 100%.
For `COC(=O)[C@H]1C[C@H]2CC[C@H]([C@H]1c1cccs1)N2CCC#N.Cc1ccc(S(=O)(=O)O)cc1`, the Activity [5] was 64%, the Activity [6] was “Active” and the ED50 [7] was 60 mg/kg. For the same molecule, the Activity [8] was “Toxic” and the Activity [4] was 100%.
In the case of `COC(=O)[C@H]1C[C@H]2CC[C@H]([C@H]1c1cccs1)N2C(C)C.Cl`, the Activity [9] is reported as “Toxic”, the Activity [10] is reported as 40% and the Activity [11] is reported as 13%. The Activity [4] was 87%.
In the case of `COC(=O)[C@@H]1C[C@@H]2CC[C@@H]([C@@H]1c1cccs1)N2C.Cl`, the Activity [12] is reported as “Toxic”, the Activity [13] is reported as “Toxic” and the Activity [14] is reported as “inactive”. The Activity [15] was 62%, the Activity [16] was “inactive” and the Activity [17] was 26%. The Activity [18] was “Active”, the Activity [19] was “inactive” and the Activity [20] was “inactive”. For the same molecule, the Activity [3] was <20%.
In the case of `Cl.O=C(O)[C@H]1C[C@H]2CC[C@@H](N2)[C@H]1c1cccs1`, the Activity [21] is reported as “inactive” and the Activity [22] is reported as <20%.
With `COC(=O)[C@H]1C[C@H]2CC[C@H]([C@H]1C)N2C.Cl` the Activity [23] was <20%.
`COC(=O)[C@H]1C[C@H]2CC[C@H]([C@H]1c1ccccc1)N2Cc1ccccc1` was tested, and the Activity [24] was 60%, the Activity [25] was “Toxic” and the ED50 [7] was 21 mg/kg. For the same molecule, the Activity [26] was “Toxic” and the Activity [27] was 42%.
